Data taken from US20250144069A1, “BILOBALIDE DERIVATIVE COMPOUNDS FOR TREATING NEUROLOGICAL DISEASES AND CANCERS” (The Chinese University of Hong Kong, priority 2023, published 2025).
Like-named read-outs stand apart in the source and are kept apart here.

How the values were obtained:
Type in all cases: cell-based, human
[1] = Single-dose CCK-8 cell viability screening (adherent cells); conditions: Homo sapiens, average of A549 and Jurkat % viability, 50 uM, 48 h
Experimental: (§1) In this example, the anti-cancer properties of the BB analogues described in Table 1d were evaluated. Single-dose screening approach is used for initial testing to assess the cytotoxic effect of the BB analogues (also referred to as ‘BB compounds’) on Jurkat cells (human T cell leukaemia cells) and A549 cells (human lung cancer cells).
(§2) Method for Adherent Cells (A549 Cells)
(§3) In this example, 5000 cells/100 uL were seeded in 96-well plates and incubate at 37° C.+5% CO2 overnight. Media were replaced with 100 uL of 50 uM compound per well in 6 replicates. The following controls were prepared.
(§4) Blank control: 100 uL 0.1% DMSO in media with no cells per well.
(§5) Positive control: 100 uL of 10 uM 5-flurouracil per well.
(§6) Negative control: 100 uL of 0.1% DMSO in media per well.
(§7) Each 96-well plate included 7 compounds and the complete set of controls (in 6 replicates).
(§8) Cells were incubated at 37° C.+5% CO2 for 46 hours. 10 uL of CCK8 solution was added to each well. Cells were then incubated at 37° C.+5% CO2 for 2 hours. Absorbance at 450 nm was measured using a multiplate reader.
(§9) Viability was calculated using the equation: […]
(§10) The benchmark in Table 2 was used to define the activities of each compound.

[2] = system: A549 cells; experiment: as above; conditions: Homo sapiens, read-out: % Viability (50 uM, 48 h) A549
Experimental: as §1, §2, §3, §4, §5, §6, §7, §8, §9, §10

[3] = system: Jurkat cells; experiment: Single-dose CCK-8 cell viability screening (suspension cells); conditions: Homo sapiens, 48 h
Experimental: as §1
Method for Suspension Cells (Jurkat Cells)
5000 cells/90 uL were seeded in 96-well plates. 10 uL of 500 uM compound (10×) was added to each well in 6 replicates. The following controls were prepared.
Blank control: 10 uL 1% DMSO in media with no cells per well.
Positive control: 10 uL of 100 uM 5-flurouracil (10×) per well.
Negative control: 10 uL of 1% DMSO in media (10×) per well.
Each 96-well plate included 7 BB analogues and the complete set of controls (in 6 replicates).
as §8, §9, §10

[4] = A549, 48 h, A549 cells, 50 uM, 48 h, CCK-8
[5] = Jurkat, Jurkat cells, 50 uM, CCK-8, read-out: % Viability (50 uM, 48 h) Jurkat
[6] = Jurkat, read-out: % Viability (50 uM, 48 h) Jurkat

| SMILES | viability at 50 µM ([1]; A549, 48 h) | viability at 50 µM [2, 4] | viability at 50 µM [3, 5] | viability at 50 µM [1] | viability at 50 µM ([2]; A549, 48 h) | viability at 50 µM [3, 6] | viability at 50 µM ([2]; A549 cells, 50 uM, 48 h, CCK-8) | viability at 50 µM ([3]; Jurkat cells, 50 uM, CCK-8, read-out: % Viability (50 uM, 48 h) Jurkat) |
| --- | --- | --- | --- | --- | --- | --- | --- | --- |
| CC(C)(C)[C@]1(O)C[C@@H]2OC(=O)C[C@@]23C(=O)O[C@@H]2N(CCC4CCNCC4)C(=O)C(OC(=O)c4ccccc4)[C@]213 (stereo in doubt) [XBB-024, 4-(2-((3aS,5aS,8S,8aS,9R,10aS)-8-(benzoyloxy)-9-(tert-butyl)-9-hydroxy-2,4,7-trioxohexahydro-4H,9H-furo [3″,2″:2′,3′]cyclopenta [1′,2′:3,4]furo[2,3-b]pyrrol-6(5aH)-yl)ethyl)piperidin-1-ium chloride] | 96.2% | 94.7% | 97.8% | – | – | – | – | – |
| CC(C)(C)[C@]1(O)C[C@@H]2OC(=O)C[C@@]23C(=O)O[C@@H]2N(CCN4CCNCC4)C(=O)C(OC(=O)c4ccccc4)[C@]213 (stereo in doubt) [XBB-028, 4-(2-((3aS,5aS,8S,8aS,9R,10aS)-8-(benzoyloxy)-9-(tert-butyl)-9-hydroxy-2,4,7-trioxohexahydro-4H,9H-furo [3″,2″:2′,3′]cyclopenta [1′,2′:3,4]furo [2,3-b]pyrrol-6(5aH)-yl)ethyl)piperazin-1-ium chloride] | 89.7% | 88.8% | 90.5% | – | – | – | – | – |
| CN1C(=O)[C@H](OC(=O)c2ccccc2)[C@@]23[C@@H]1OC(=O)[C@@]21CC(=O)O[C@H]1C[C@@]3(O)C(C)(C)C [DW168, (3aS,5aS,8R,8aS,9R,10aS)-9-(tert-butyl)-9-hydroxy-6-methyl-2,4,7-trioxooctahydro-4H,9H-furo [3″,2″:2′,3′]cyclopenta [1′,2′:3,4]furo[2,3-b]pyrrol-8-ylbenzoate] | 103% | 105% | 101% | – | – | – | – | – |
| CC(C)(C)[C@]1(O)C[C@@H]2OC(=O)C[C@@]23C(=O)O[C@@H]2N(C45CC(C4)C5)C(=O)[C@H](OC(=O)c4ccccc4)[C@]213 [DW172, (3aS,5aS,8R,8aS,9R,10aS)-6-(bicyclo[1.1.1]pentan-1-yl)-9-(tert-butyl)-9-hydroxy-2,4,7-trioxooctahydro-4H,9H-furo [3″,2″:2′,3′]cyclopenta [1′,2′:3,4]furo[2,3-b]pyrrol-8-yl benzoate] | – | – | – | 96.6% | 98.7% | 94.4% | – | – |
| CC(C)(C)[C@]1(O)C[C@@H]2OC(=O)C[C@@]23C(=O)O[C@@H]2N(C4COC4)C(=O)[C@H](OC(=O)c4ccccc4)[C@]213 [DW182, (3aS,5aS,8R,8aS,9R,10aS)-9-(tert-butyl)-9-hydroxy-6-(oxetan-3-yl)-2,4,7-trioxooctahydro-4H,9H-furo [3″,2″:2′,3′]cyclopenta [1′,2′:3,4]furo [2,3-b]pyrrol-8-yl benzoate] | 107% | 114% | 101% | – | – | – | – | – |
| CC(C)(C)[C@]1(O)C[C@@H]2OC(=O)C[C@@]23C(=O)O[C@@H]2N(CC4CCC4)C(=O)[C@H](OC(=O)c4ccccc4)[C@]213 [DW184, (3aS,5aS,8R,8aS,9R,10aS)-9-(tert-butyl)-6-(cyclobutylmethyl)-9-hydroxy-2,4,7-trioxooctahydro-4H,9H-furo [3″,2″:2′,3′]cyclopenta [1′,2′:3,4]furo [2,3-b]pyrrol-8-yl benzoate] | 81.1% | 93.5% | 68.7% | – | – | – | – | – |
| CC(C)(C)[C@]1(O)C[C@@H]2OC(=O)C[C@@]23C(=O)O[C@@H]2N(CC4CC4)C(=O)[C@H](OC(=O)c4ccccc4)[C@]213 [DW189, (3aS,5aS,8R,8aS,9R,10aS)-9-(tert-butyl)-6-(cyclopropylmethyl)-9-hydroxy-2,4,7-trioxooctahydro-4H,9H-furo [3″,2″:2′,3′]cyclopenta [1′,2′:3,4]furo[2,3-b]pyrrol-8-yl benzoate] | 101% | 107% | 95.3% | – | – | – | – | – |
| CC(C)(C)[C@]1(O)C[C@@H]2OC(=O)C[C@@]23C(=O)O[C@@H]2N(CC4COC4)C(=O)[C@H](OC(=O)c4ccccc4)[C@]213 [DW191, (3aS,5aS,8R,8aS,9R,10aS)-9-(tert-butyl)-6-(1-oxetan-3-ylmethyl)-9-hydroxy-2,4,7-trioxooctahydro-4H,9H-furo [3″,2″:2′,3′]cyclopenta [1′,2′:3,4]furo [2,3-b]pyrrol-8-yl benzoate] | 103% | 101% | 105% | – | – | – | – | – |
| CC(C)(C)[C@]1(O)C[C@@H]2OC(=O)C[C@@]23C(=O)O[C@@H]2N(N)C(=O)[C@H](O)[C@]213 [JW072, (3aS,5aS,8R,8aS,9R,10aS)-6-amino-9-(tert-butyl)-8,9-dihydroxytetrahydro-4H,9H-furo [3″,2″:2′,3′]cyclopenta [1′,2′:3,4]furo [2,3-b]pyrrole-2,4,7(3H,8H)-trione] | – | – | – | 100% | – | – | 103% | 97.2% |
| CC(C)(C)[C@]1(O)C[C@@H]2OC(=O)C[C@@]23C(=O)O[C@@H]2N(C4CCCC4)C(=O)[C@H](OC(=O)c4ccccc4)[C@]213 [JW081, (3aS,5aS,8R,8aS,9R,10aS)-9-(tert-butyl)-6-cyclopentyl-9-hydroxy-2,4,7-trioxooctahydro-4H,9H-furo[3″,2″:2′,3′]cyclopenta [1′,2′:3,4]furo[2,3-b]pyrrol-8-yl benzoate] | – | – | – | 88.3% | 89.5% | 87.1% | – | – |
| COc1cccc(N2C(=O)[C@H](OC(=O)c3ccccc3)[C@@]34[C@@H]2OC(=O)[C@@]32CC(=O)O[C@H]2C[C@@]4(O)C(C)(C)C)c1 [JW092, (3aS,5aS,8R,9R,10aS)-9-(tert-butyl)-9-hydroxy-6-(3-methoxyphenyl)-2,4,7-trioxodecahydrofuro [3″,2″:2′,3′]cyclopenta [1′,2′:3,4]furo [2,3-b]pyrrol-8-yl benzoate] | 61.5% | 53.7% | 69.3% | – | – | – | – | – |
| COc1ccc(N2C(=O)[C@H](OC(=O)c3ccccc3)[C@@]34[C@@H]2OC(=O)[C@@]32CC(=O)O[C@H]2C[C@@]4(O)C(C)(C)C)cc1 [JW093, (3aS,5aS,8R,9R,10aS)-9-(tert-butyl)-9-hydroxy-6-(4-methoxyphenyl)-2,4,7-trioxodecahydrofuro [3″,2″:2′,3′]cyclopenta [1′,2′:3,4]furo [2,3-b]pyrrol-8-yl benzoate] | 67.5% | 68.7% | 66.3% | – | – | – | – | – |
| CC(C)(C)[C@]1(O)C[C@@H]2OC(=O)C[C@@]23C(=O)O[C@@H]2N(c4ccc5ccccc5c4)C(=O)[C@H](OC(=O)c4ccccc4)[C@]213 [JW094, (3aS,5aS,8R,9R,10aS)-9-(tert-butyl)-9-hydroxy-6-(naphthalen-2-yl)-2,4,7-trioxodecahydrofuro [3″,2″:2′,3′]cyclopenta [1′,2′:3,4]furo [2,3-b]pyrrol-8-yl benzoate] | 76.7% | 76.5% | 76.9% | – | – | – | – | – |
| COc1ccccc1N1C(=O)[C@H](OC(=O)c2ccccc2)[C@@]23[C@@H]1OC(=O)[C@@]21CC(=O)O[C@H]1C[C@@]3(O)C(C)(C)C [JW095, (3aS,5aS,8R,9R,10aS)-9-(tert-butyl)-9-hydroxy-6-(2-methoxyphenyl)-2,4,7-trioxodecahydrofuro [3″,2″:2′,3′]cyclopenta [1′,2′:3,4]furo [2,3-b]pyrrol-8-yl benzoate] | 78.1% | 87.2% | 69% | – | – | – | – | – |
| CC(C)(C)[C@]1(O)C[C@@H]2OC(=O)C[C@@]23C(=O)O[C@@H]2N(c4cccc(C(F)(F)F)c4)C(=O)[C@H](OC(=O)c4ccccc4)[C@]213 [JW100, (3aS,5aS,8R,9R,10aS)-9-(tert-butyl)-9-hydroxy-2,4,7-trioxo-6-(3-(trifluoromethyl)phenyl)octahydro-4H,9H-furo [3″,2″:2′,3′]cyclopenta [1′,2′:3,4]furo [2,3-b]pyrrol-8-yl benzoate] | 61.1% | – | – | – | 54% | 68.2% | – | – |
| CC(C)(C)[C@]1(O)C[C@@H]2OC(=O)C[C@@]23C(=O)O[C@@H]2N(c4ccc(O)cc4)C(=O)[C@H](OC(=O)c4ccccc4)[C@]213 [JW103, (3aS,5aS,8R,9R,10aS)-9-(tert-butyl)-6-(4-hydroxyphenyl)-9-hydroxy-2,4,7-trioxodecahydrofuro [3″,2″:2′,3′]cyclopenta [1′,2′:3,4]furo [2,3-b]pyrrol-8-yl benzoate] | 92.2% | 102% | 82.2% | – | – | – | – | – |
